# Source: patent US20200016159A1, “N3-CYCLICALLY SUBSTITUTED THIENOURACILS AND USE THEREOF” (Bayer Aktiengesellschaft, priority 2016, published 2020)
# Molecular target: T1, human adenosine A2b receptor (Homo sapiens, UniProt P29275)
# T1 sequence (P29275 1-332): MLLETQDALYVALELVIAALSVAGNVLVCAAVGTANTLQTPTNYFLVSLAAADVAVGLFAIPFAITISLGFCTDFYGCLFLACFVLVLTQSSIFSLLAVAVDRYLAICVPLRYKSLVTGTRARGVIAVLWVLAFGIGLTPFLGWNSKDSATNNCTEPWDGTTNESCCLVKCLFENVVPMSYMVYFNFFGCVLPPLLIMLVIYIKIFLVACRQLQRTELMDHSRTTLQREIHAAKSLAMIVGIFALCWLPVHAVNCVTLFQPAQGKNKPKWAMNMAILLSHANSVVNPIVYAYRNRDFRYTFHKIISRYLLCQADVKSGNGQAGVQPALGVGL
# Experiment: Cellular in vitro reporter gene test for A2b receptor activity (antagonism of NECA)
# Assay type: cell-based
# Set-up: expressed in transfected cells; host or cells: CHO-K1 (Chinese hamster ovary) with CRE-luciferase reporter
# Conditions: recombinant CHO-K1 cells, CRE-luciferase reporter, co-incubation with EC50 concentration of NECA, 3 hours
# Experimental: The identification of selective antagonists of the human adenosine A2b receptor and the quantification of the efficacy and selectivity of the compounds according to the invention was carried out with the aid of recombinant cell lines for the human adenosine receptors A1, A2a, A2b and A3. These cell lines were originally derived from an ovarepithelial cell of the hamster (Chinese Hamster Ovary, CHO-K1, American Type Culture Collection, Manassas, Va. 20108, USA). In addition to the respective recombinantly expressed adenosine receptor for testing the efficacy at the A1, A2a and A2b receptors, the cell lines contain a reporter gene construct where expression of the firefly (Photinus pyralis) luciferase is under the control of a promoter which can be activated via intracellular signal cascades by stimulation of the receptors with the (not subtype-selective) adenosine receptor agonist NECA (5′-N-ethylcarboxamidoadenosine) [S. J. Hill, J. G. Baker, S. Rhees, Curr. Opin. Pharmacol. 1, 526-532 (2001)].
# In the case of the A2a and A2b cell lines, this is a minimal promoter having a plurality of cAMP-responsive elements (CRE). Stimulation of the Gs-coupled A2b or A2a receptors by NECA ultimately leads, via formation of cAMP, to CRE-dependent induction of luciferase expression, which is detected 3 hours after the start of the incubation with NECA using a detection solution in a suitable luminometer. For testing the antagonists, initially, in a pre-experiment, the concentration of NECA which, at the test day in question, results in half-maximum stimulation of luciferase expression (EC50 concentration) is determined. By joint incubation of this EC50 concentration of NECA with the substances to be tested, it is possible to determine their antagonistic activity.
# Table 1 below lists the IC50 values from the A2b receptor assay for individual working examples (in some cases as means of a plurality of independent individual determinations and rounded to two significant figures; it may also be the case here that various independent preparations of the respective working example have been used): […]
row,SMILES,IC50 [µM]
1,"Cc1c(Cn2nc[nH]c2=O)sc2c1c(=O)n(C1CC1)c(=O)n2CC1CC1(F)F (racemic) [Example 20, 3-Cyclopropyl-1-[(2,2-difluorocyclopropyl)methyl]-5-methyl-6-[(5-oxo-4,5-dihydro-1H-1,2,4-triazol-1-yl)methyl]thieno[2,3-d]pyrimidine-2,4(1H,3H)-dione (racemate)]",0.13
2,"Cc1c(CN2CCNC2=O)sc2c1c(=O)n(C1(C)CC1)c(=O)n2CC1CC1(F)F (racemic) [Example 63, 1-[(2,2-Difluorocyclopropyl)methyl]-5-methyl-3-(1-methylcyclopropyl)-6-[(2-oxoimidazolidin-1-yl)methyl]thieno[2,3-d]pyrimidine-2,4(1H,3H)-dione]",0.012
3,"Cc1c(Cn2nc[nH]c2=O)sc2c1c(=O)n(C1(C)CC1)c(=O)n2CC1CC1(F)F (racemic) [Example 66, 1-[(2,2-Difluorocyclopropyl)methyl]-5-methyl-3-(1-methylcyclopropyl)-6-[(5-oxo-4,5-dihydro-1H-1,2,4-triazol-1-yl)methyl]thieno[2,3-d]pyrimidine-2,4(1H,3H)-dione]",0.14
4,"Cc1c(CN2CCNC2=O)sc2c1c(=O)n(C1CC1C)c(=O)n2CCCF (racemic) [Example 90, 1-(3-Fluoropropyl)-5-methyl-3-(2-methylcyclopropyl)-6-[(2-oxoimidazolidin-1-yl)methyl]thieno[2,3-d]pyrimidine-2,4(1H,3H)-dione]",0.0053
5,"Cc1c(CN2CCNC2=O)sc2c1c(=O)n(C1CC1C)c(=O)n2CCC(F)(F)F (racemic) [Example 93, 5-Methyl-3-(2-methylcyclopropyl)-6-[(2-oxoimidazolidin-1-yl)methyl]-1-(3,3,3-trifluoropropyl)thieno[2,3-d]pyrimidine-2,4(1H,3H)-dione]",0.0018
6,"COCCn1c(=O)n(C2CC2C)c(=O)c2c(C)c(CN3CCNC3=O)sc21 (racemic) [Example 94, 1-(2-Methoxyethyl)-5-methyl-3-(2-methylcyclopropyl)-6-[(2-oxoimidazolidin-1-yl)methyl]thieno[2,3-d]pyrimidine-2,4(1H,3H)-dione]",0.0072
7,"Cc1c(CN2CCNC2=O)sc2c1c(=O)n(C1CC1(C)C)c(=O)n2CCCF (racemic) [Example 97, 3-(2,2-Dimethylcyclopropyl)-1-(3-fluoropropyl)-5-methyl-6-[(2-oxoimidazolidin-1-yl)methyl]thieno[2,3-d]pyrimidine-2,4(1H,3H)-dione]",0.026
8,"Cc1c(CN2CCNC2=O)sc2c1c(=O)n(C1CC1(C)C)c(=O)n2CCC(F)(F)F (racemic) [Example 100, 3-(2,2-Dimethylcyclopropyl)-5-methyl-6-[(2-oxoimidazolidin-1-yl)methyl]-1-(3,3,3-trifluoropropyl)thieno[2,3-d]pyrimidine-2,4(1H,3H)-dione]",0.012
9,"COCCn1c(=O)n(C2CC2(C)C)c(=O)c2c(C)c(CN3CCNC3=O)sc21 (racemic) [Example 103, 3-(2,2-Dimethylcyclopropyl)-1-(2-methoxyethyl)-5-methyl-6-[(2-oxoimidazolidin-1-yl)methyl]thieno[2,3-d]pyrimidine-2,4(1H,3H)-dione]",0.021
10,"Cc1c(CN2CCNC2=O)sc2c1c(=O)n(C1CC1C)c(=O)n2C (racemic) [Example 221, 1,5-Dimethyl-3-(2-methylcyclopropyl)-6-[(2-oxoimidazolidin-1-yl)methyl]thieno[2,3-d]pyrimidine-2,4(1H,3H)-dione]",0.0033
11,"Cc1c(CN2CCNC2=O)sc2c1c(=O)n(C1CC1C)c(=O)n2CC(F)F (racemic) [Example 234, 1-(2,2-Difluoroethyl)-5-methyl-3-(2-methylcyclopropyl)-6-[(2-oxoimidazolidin-1-yl)methyl]thieno[2,3-d]pyrimidine-2,4(1H,3H)-dione]",0.0019
12,"Cc1c(CN2CCNC2=O)sc2c1c(=O)n(C1CC1C)c(=O)n2CC(F)(F)F (racemic) [Example 237, 5-Methyl-3-(2-methylcyclopropyl)-6-[(2-oxoimidazolidin-1-yl)methyl]-1-(2,2,2-trifluoroethyl)thieno[2,3-d]pyrimidine-2,4(1H,3H)-dione]",0.0044

# Further lines, results first:
row,IC50 [µM],SMILES
1,0.019,"Cc1c(CN2CCNC2=O)sc2c1c(=O)n(C1CC1)c(=O)n2CC1CC1(F)F (racemic) [Example 19, 3-Cyclopropyl-1-[(2,2-difluorocyclopropyl)methyl]-5-methyl-6-[(2-oxoimidazolidin-1-yl)methyl]thieno[2,3-d]pyrimidine-2,4(1H,3H)-dione (racemate)]"
2,0.035,"Cc1c(CN2CCNC2=O)sc2c1c(=O)n(C1CC1)c(=O)n2CC1CCCO1 (racemic) [Example 37, 3-Cyclopropyl-5-methyl-6-[(2-oxoimidazolidin-1-yl)methyl]-1-(tetrahydrofuran-2-ylmethyl)thieno[2,3-d]pyrimidine-2,4(1H,3H)-dione]"
3,0.015,"Cc1c(CN2CCNC2=S)sc2c1c(=O)n(C1CC1)c(=O)n2CC1CCCO1 (racemic) [Example 40, 3-Cyclopropyl-5-methyl-1-(tetrahydrofuran-2-ylmethyl)-6-[(2-thioxoimidazolidin-1-yl)methyl]thieno[2,3-d]pyrimidine-2,4(1H,3H)-dione]"
4,0.016,"Cc1c(CN2CCNC2=NC#N)sc2c1c(=O)n(C1CC1)c(=O)n2CC1CCCO1 (racemic) [Example 41, [1-{[3-Cyclopropyl-5-methyl-2,4-dioxo-1-(tetrahydrofuran-2-ylmethyl)-1,2,3,4-tetrahydrothieno[2,3-d]pyrimidin-6-yl]methyl}imidazolidin-2-ylidene]cyanamide]"
5,0.01,"COC(=O)N=C1NCCN1Cc1sc2c(c1C)c(=O)n(C1CC1)c(=O)n2CC1CCCO1 (racemic) [Example 42, Methyl [1-{[3-cyclopropyl-5-methyl-2,4-dioxo-1-(tetrahydrofuran-2-ylmethyl)-1,2,3,4-tetrahydrothieno[2,3-d]pyrimidin-6-yl]methyl}imidazolidin-2-ylidene]carbamate]"
6,0.11,"Cc1c(CN2CCNC(=O)C2=O)sc2c1c(=O)n(C1CC1)c(=O)n2CC1CCCO1 (racemic) [Example 45, 3-Cyclopropyl-6-[(2,3-dioxopiperazin-1-yl)methyl]-5-methyl-1-(tetrahydrofuran-2-ylmethyl)thieno[2,3-d]pyrimidine-2,4(1H,3H)-dione]"
7,0.039,"Cc1c(Cn2cc[nH]c2=O)sc2c1c(=O)n(C1CC1)c(=O)n2CC1CCCO1 (racemic) [Example 46, 3-Cyclopropyl-5-methyl-6-[(2-oxo-2,3-dihydro-H-imidazol-1-yl)methyl]-1-(tetrahydrofuran-2-ylmethyl)thieno[2,3-d]pyrimidine-2,4(1H,3H)-dione]"
8,0.11,"Cc1c(Cn2nc[nH]c2=O)sc2c1c(=O)n(C1CC1)c(=O)n2CC1CCCO1 (racemic) [Example 49, 3-Cyclopropyl-5-methyl-6-[(5-oxo-4,5-dihydro-1H-1,2,4-triazol-1-yl)methyl]-1-(tetrahydrofuran-2-ylmethyl)thieno[2,3-d]pyrimidine-2,4(1H,3H)-dione]"
9,0.2,"Cc1c(Cn2nc[nH]c2=O)sc2c1c(=O)n(C1CC1)c(=O)n2CC1CCC(F)(F)C1 (racemic) [Example 209, 3-Cyclopropyl-1-[(3,3-difluorocyclopentyl)methyl]-5-methyl-6-[(5-oxo-4,5-dihydro-1H-1,2,4-triazol-1-yl)methyl]thieno[2,3-d]pyrimidine-2,4(1H,3H)-dione]"
10,0.011,"CCn1c(=O)n(C2CC2C)c(=O)c2c(C)c(CN3CCNC3=O)sc21 (racemic) [Example 224, 1-Ethyl-5-methyl-3-(2-methylcyclopropyl)-6-[(2-oxoimidazolidin-1-yl)methyl]thieno[2,3-d]pyrimidine-2,4(1H,3H)-dione]"
11,0.0029,"CCCn1c(=O)n(C2CC2C)c(=O)c2c(C)c(CN3CCNC3=O)sc21 (racemic) [Example 227, 5-Methyl-3-(2-methylcyclopropyl)-6-[(2-oxoimidazolidin-1-yl)methyl]-1-propylthieno[2,3-d]pyrimidine-2,4(1H,3H)-dione]"
12,0.0023,"Cc1c(CN2CCNC2=O)sc2c1c(=O)n(C1CC1C)c(=O)n2CCF (racemic) [Example 231, 1-(2-Fluoroethyl)-5-methyl-3-(2-methylcyclopropyl)-6-[(2-oxoimidazolidin-1-yl)methyl]thieno[2,3-d]pyrimidine-2,4(1H,3H)-dione]"
